Results: patent publication US12428406B2 (PMV Pharmaceuticals, Inc., priority 2019, dated 2025)

These molecules were tested against T1, p53 Y220C (Homo sapiens, UniProt P04637, Y220C) (assay: In vitro DNA binding activity assay (HTRF / TR-FRET): stabilization of p53 Y220C and increase of its DNA binding activity). Details: recombinant His-tagged p53 Y220C DNA binding domain (aa 94-312), biotin-labeled consensus DNA, incubated at 27° C. or 29° C. for 60 min.
T1 construct: The recombinant protein was a truncation mutant containing only amino acids 94-312 of p53; made in house; host or cells: E. coli
T1 sequence (P04637 94-312, change not shown): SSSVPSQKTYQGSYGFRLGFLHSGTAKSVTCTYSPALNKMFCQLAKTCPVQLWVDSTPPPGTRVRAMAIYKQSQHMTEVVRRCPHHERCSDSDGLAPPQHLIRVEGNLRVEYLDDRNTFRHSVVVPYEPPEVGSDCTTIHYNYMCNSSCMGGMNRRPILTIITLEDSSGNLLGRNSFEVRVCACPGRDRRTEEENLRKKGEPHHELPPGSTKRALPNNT
Format: biochemical
How it was run: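 His-tagged p53 Y220C, E. coli-expressed, binding biotin-labeled consensus DNA measured by HTRF (anti-His-APC, streptavidin-europium). Compounds from 4.5 mM DMSO stocks, 3-fold serial dilutions; incubations at room temperature 15 min, then 20 min. SC150 = concentration raising DNA binding by 50%.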

SMILES	SC150 (concentration of the compound required to increase the DNA binding activity by 50%)
COc1cc(S(C)(=O)=O)ccc1NCC#Cc1cc2c(N[C@H]3CC[C@H](N4CC(S(C)(=O)=O)C4)CC3)cccc2n1CC(F)(F)F [Compound 188A, 2-{3-[(4-methane-sulfonyl-2-methoxy-phenyl)amino]prop-1-yn-1-yl}-N-[(1R,4R)-4-(3-methanesulfonyl-azetidin-1-yl)cyclohexyl]-1-(2,2,2-trifluoroethyl)-1H-indol-4-amine]	+ (+ = 0 μM ≤ SC150 < 0.05 μM)
CC(=O)Nc1cc(S(C)(=O)=O)ccc1OCC#Cc1cc2c(N[C@H]3CC[C@H](N(C)C)CC3)cccc2n1CC(F)(F)F [Compound 115A, N-(5-methanesulfonyl-2-{[3-(4-{[(1R,4R)-4-(dimethylamino)cyclohexyl]amino}-1-(2,2,2-trifluoro-ethyl)-1H-indol-2-yl)prop-2-yn-1-yl]oxy}phenyl)acetamide]	++ (++ = 0.05 μM ≤ SC150 < 0.1 μM)
COCC(O)CN1CCC(Nc2cccc3c2cc(C#CCNc2ccc(S(C)(=O)=O)cc2OC(F)F)n3CC(F)(F)F)CC1 (stereo not drawn) [Compound 668A, 1-(4-{[2-(3-{[2-(difluoromethoxy)-4-methanesulfonylphenyl]amino}prop-1-yn-1-yl)-1-(2,2,2-trifluoroethyl)-1H-indol-4-yl]amino}piperidin-1-yl)-3-methoxypropan-2-ol]	+ (+ = 0 μM ≤ SC150 < 0.05 μM)
COc1cc(S(C)(=O)=O)ccc1NCC#Cc1cc2c(NC3CCN(C4CCOCC4)C3)cccc2n1CC(F)(F)F (stereo not drawn) [Compound 458A, 2-{3-[(4-methanesulfonyl-2-methoxyphenyl)amino]prop-1-yn-1-yl}-N-[1-(oxan-4-yl)pyrrolidin-3-yl]-1-(2,2,2-trifluoroethyl)-1H-indol-4-amine]	+ (+ = 0 μM ≤ SC150 < 0.05 μM)
COc1cc(C(=O)O)ccc1NCC#Cc1cc2c(NC3CCN(C4CC4)CC3)cccc2n1CC(F)(F)F [Compound 721A, 4-[(3-{4-[(1-cyclopropylpiperidin-4-yl)amino]-1-(2,2,2-trifluoroethyl)-1H-indol-2-yl}prop-2-yn-1-yl)amino]-3-methoxybenzoic acid]	+ (+ = 0 μM ≤ SC150 < 0.05 μM)
COc1cc(S(C)(=O)=O)ccc1NCC#Cc1cc2c(NC3CC4(COC4)C3)cccc2n1CC(F)(F)F [Compound 20A, 2-{3-[(4-methane-sulfonyl-2-methoxy-phenyl)amino]prop-1-yn-1-yl}-N-{2-oxaspiro[3.3]heptan-6-yl}-1-(2,2,2-trifluoroethyl)-1H-indol-4-amine]	+ (+ = 0 μM ≤ SC150 < 0.05 μM)
CS(=O)(=O)c1ccc(NCC#Cc2cc3c(NC4CCOCC4)cccc3n2CC(F)(F)F)c(OC(F)(F)F)c1 [Compound 991A, 2-(3-{[4-methanesulfonyl-2-(trifluoromethoxy)phenyl]amino}prop-1-yn-1-yl)-N-(oxan-4-yl)-1-(2,2,2-trifluoroethyl)-1H-indol-4-amine]	+ (+ = 0 μM ≤ SC150 < 0.05 μM)
COCC(=O)N1CC[C@@H](Nc2cccc3c2cc(C#CCNc2ccc(S(C)(=O)=O)cc2OC)n3CC(F)(F)F)[C@@H](F)C1 [Compound 866A, 1-[(3S,4R)-3-fluoro-4-[(2-{3-[(4-methanesulfonyl-2-methoxyphenyl)amino]prop-1-yn-1-yl}-1-(2,2,2-trifluoroethyl)-1H-indol-4-yl)amino]piperidin-1-yl]-2-methoxyethan-1-one]	+ (+ = 0 μM ≤ SC150 < 0.05 μM)
CNC(=O)c1ccc(NCC#Cc2cc3c(N[C@H]4CCN(C)C[C@H]4F)cccc3n2CC(F)(F)F)c(OC)c1 (racemic) [Compound 783A, 4-[3-[4-[[(3R,4S)-3-fluoro-1-methyl-4-piperidyl]amino]-1-(2,2,2-trifluoroethyl)indol-2-yl]prop-2-ynylamino]-3-methoxy-N-methyl-benzamide]	+ (+ = 0 μM ≤ SC150 < 0.05 μM)
